According to patent US7851492B2, “ERG channel openers for the treatment of cardiac arrhythmias” (Neurosearch A/S, priority 2003, dated 2010):

Assays:
[1] = target: T1, HERG1 channel (Homo sapiens, UniProt Q12809); assay: HERG1 current by 2-electrode voltage clamp in Xenopus laevis oocytes transiently expressing HERG1 channels; assay type: cell-based
T1 construct: expressed in transfected cells; host or cells: Xenopus laevis oocytes (transient expression, vector pXOOM)
Protocol: The HERG1 channel is expressed in HEK293 cells. The gene encoding the HERG1 channel was cloned as described by Warmke & Ganetzky, Proc. Natl. Acad. Sci. USA 1994 91 3438-3442.
(§1) To ensure functional expression in HEK293 cells, the HERG1 gene was sub-cloned in the shuttle-vector pXOOM as described by Jespersen et al.; Biotechniques 2002 32 536-540.
The electrical current through the HERG1 channel is measured using 2-electrode voltage clamp technology. HERG1 current is activated by a step protocol.
In brief, this protocol goes from a resting membrane potential of −80 mV (lasting 3 seconds) to a 1 second depolarisation step at +10 mV, followed by a repolarisation step at −60 mV. The protocol is repeated up to 500 times.
Xenopus laevis oocytes transiently expressing HERG1 channels where challenged by a voltage protocol from −80 mV to +10 mV to −60 mV. This protocol was repeated every 7th second until a stable current level was obtained.

[2] = target: T1, HERG1 channel; assay: HERG1 current by patch clamp with simulated cardiac action potential in HEK293 cells stably expressing HERG1 channels; assay type: cell-based
Protocol: In this example the HERG1 channel opening activity of a diphenyl urea derivative for use according to the invention, 1-(3-Trifluoromethyl-phenyl)-3-(2-hydroxy-5-chlorophenyl)-urea (Compound A), is determined using mammalian HEK293 cells stably expressing HERG1 channels.
The HERG1 channel is expressed in HEK293 cells. The gene encoding the HERG1 channel was cloned as described by Warmke & Ganetzky; Proc. Natl. Acad. Sci. USA 1994 91 3438-3442.
as §1
Mammalian expression is obtained by stable transfection of the gene construct in HEK293 cells.
The electrical current through the HERG1 channel is measured using patch clamp technology. HERG1 current is activated by simulated cardiac action potentials.
In brief, this protocol goes from a resting membrane potential of −90 mV to a short initial depolarisation step to +30 mV, followed by a ramp ending at 0 mV. This plateau phase is ended by a repolarisation, going from −15 mV to −90 mV in 70 ms, back to the resting membrane potential, as also shown in the voltage protocol in FIG. 1.
Having reached a stable current level, Compound A was added.

[3] = tested on: awake guinea pigs; assay: Awake guinea-pig telemetry model: QT intervals in electrocardiograms; assay type: in vivo; conditions: 50 mg/kg IV
Protocol: Compounds were dosed IV, and ECG's and heart rate were measured. QT intervals were corrected (QTc) for any change in heart rate.

[4] = tested on: native cardiac myocytes; assay: Modulation of action potentials in native cardiac myocytes (patch clamp, current clamp mode); assay type: cell-based, guinea pig
Protocol: In this example the activity on native cardiac myocytes from guinea pigs of a compound representative of the invention, 1,3-Bis-(2-hydroxy-5-trifluoromethyl-phenyl)-urea (Compound C), obtained as described in WO 2002/064128, is determined.
The membrane potential of native cardiomyocytes was determined using the patch clamp technique in current clamp mode. The membrane potential was adjusted to approximately −80 mV before start of experiments. Cells were challenged by 20 repetitive rounds of current applications. A single round of application was as follows: Action potentials were evoked by applying a single current pulse of 1 nA lasting from 5-15 ms. The single pulse was followed by 30 repetitive pulses lasting 1-5 ms and with a current amplitude of 100-700 pA. The repetitive pulses were applied at the end of the evoked action potential. These experiments were conducted in the presence or absence of Compound C.
Native cardiomyocytes responded to the described voltage protocol by eliciting an actionpotential.

[5] = native guinea pig cardiomyocytes, current clamp, Example 3

T1 sequence (Q12809 whole entry): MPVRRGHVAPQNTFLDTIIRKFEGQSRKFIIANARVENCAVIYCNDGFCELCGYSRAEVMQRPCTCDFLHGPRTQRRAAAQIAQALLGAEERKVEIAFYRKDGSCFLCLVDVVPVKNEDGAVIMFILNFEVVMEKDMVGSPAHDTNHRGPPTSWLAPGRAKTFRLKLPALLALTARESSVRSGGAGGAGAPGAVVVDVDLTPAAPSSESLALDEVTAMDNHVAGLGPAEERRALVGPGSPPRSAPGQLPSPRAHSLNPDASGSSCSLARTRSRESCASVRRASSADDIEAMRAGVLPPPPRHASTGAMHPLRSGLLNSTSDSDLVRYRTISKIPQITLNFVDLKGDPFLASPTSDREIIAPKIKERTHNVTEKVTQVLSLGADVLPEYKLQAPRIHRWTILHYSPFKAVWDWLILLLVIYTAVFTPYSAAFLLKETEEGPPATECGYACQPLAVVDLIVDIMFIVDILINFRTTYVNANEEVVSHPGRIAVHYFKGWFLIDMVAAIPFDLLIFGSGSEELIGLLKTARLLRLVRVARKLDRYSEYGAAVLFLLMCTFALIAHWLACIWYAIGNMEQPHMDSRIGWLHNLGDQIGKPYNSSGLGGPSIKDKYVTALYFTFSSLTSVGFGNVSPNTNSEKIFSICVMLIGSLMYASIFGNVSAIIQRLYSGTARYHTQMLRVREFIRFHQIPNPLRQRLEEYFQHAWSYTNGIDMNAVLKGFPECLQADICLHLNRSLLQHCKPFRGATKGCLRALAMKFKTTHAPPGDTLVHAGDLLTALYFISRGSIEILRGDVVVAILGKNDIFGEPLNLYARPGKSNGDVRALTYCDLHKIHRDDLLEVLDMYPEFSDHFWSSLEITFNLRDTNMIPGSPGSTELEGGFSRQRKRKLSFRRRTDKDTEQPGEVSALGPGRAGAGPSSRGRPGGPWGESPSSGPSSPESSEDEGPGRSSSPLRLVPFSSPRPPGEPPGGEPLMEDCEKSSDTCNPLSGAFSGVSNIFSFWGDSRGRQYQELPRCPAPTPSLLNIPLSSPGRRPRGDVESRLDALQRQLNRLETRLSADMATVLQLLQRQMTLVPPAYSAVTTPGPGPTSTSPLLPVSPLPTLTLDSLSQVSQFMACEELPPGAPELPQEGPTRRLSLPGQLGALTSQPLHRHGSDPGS

| SMILES | melting point | also measured |
| --- | --- | --- |
| O=C(Nc1cc(C(F)(F)F)ccc1O)Nc1ccccc1C(F)(F)F [Compound 1, 1-(2-Hydroxy-5-trifluoromethyl-phenyl)-3-(2-trifluoromethyl-phenyl)-urea] | 158 to 159 °C | – |
| O=C(Nc1ncccn1)Nc1ccccc1C(F)(F)F [Compound 2, 1-Pyrimidin-2-yl-3-(2-trifluoromethyl-phenyl)-urea] | 224 to 225 °C | – |
| O=C(Nc1cc(Cl)ccc1O)Nc1ccccc1C(F)(F)F [Compound 3, 1-(5-Chloro-2-hydroxy-phenyl)-3-(2-trifluoromethyl-phenyl)-urea] | 183 to 184 °C | – |
| COc1ccc(NC(=O)Nc2cccc(C(F)(F)F)c2)c(O)n1 [Compound 4, 1-(2-Hydroxy-6-methoxy-pyridin-3-yl)-3-(3-trifluoromethyl-phenyl)-urea] | 223 to 224 °C | – |
| O=C(Nc1cccc(C(F)(F)F)c1)Nc1c(C(=O)O)[nH]c(=O)[nH]c1=O [Compound 7, 2,6-Dioxo-5-[3-(3-trifluoromethyl-phenyl)-ureido]-1,2,3,6-tetrahydro-pyrimidine-4-carboxylic acid] | > 300 °C | – |
| O=C(Nc1cccc(C(F)(F)F)c1)Nc1nccnc1C(=O)O [Compound 8, 3-[3-(3-Trifluoromethyl-phenyl)-ureido]-pyrazine-2-carboxylic acid] | > 300 °C | – |
| O=C(Nc1ccccc1F)Nc1cc(Cl)ccc1C(=O)O [Compound 9, 4-Chloro-2-[3-(2-fluoro-phenyl)-ureido]-benzoic acid] | 195 to 197 °C | – |
| CN(C)C(=O)CCc1ccc(NC(=O)Nc2ccc(Cl)c(C(F)(F)F)c2)c(-c2nnn[nH]2)c1 [Compound 11, 3-[4-[3-(4-Chloro-3-trifluoromethyl-phenyl)-ureido]-3-(1H-tetrazol-5-yl)-phenyl]-N,N-dimethyl-propionamide] | 184.5 to 189.3 °C | – |
| O=C(Nc1cc(Cl)cc(Cl)c1)Nc1ccc(Cl)cc1-c1nnn[nH]1 [Compound 12, 1-[4-Chloro-2-(1H-tetrazol-5-yl)-phenyl]-3-(3,5-dichloro-phenyl)-urea] | 234 to 236 °C | – |
| O=C(Nc1ccc(-c2ccccc2)cc1-c1nnn[nH]1)c1cc(C(F)(F)F)cc(C(F)(F)F)c1 [Compound 15, N-[3-(1H-Tetrazol-5-yl)-biphenyl-4-yl]-3,5-bis-trifluoromethyl-benzamide] | 156 °C (dec.) | HERG1 current ([1]; 1-30 μM): increase; repolarisation current recorded at −60 mV ([1]; voltage protocol −80 mV to +10 mV to −60 mV (FIG. 2)): marked increase |
| O=C(Nc1ccc(Nc2ccc(Cl)cc2)c(Cl)c1)c1cc([N+](=O)[O-])ccc1O [Compound 17, N-[3-Chloro-4-(4-chloro-phenylamino)-phenyl]-2-hydroxy-5-nitro-benzamide] | > 219 °C (dec.) | – |
| O=C(Nc1cccc(C(F)(F)F)c1)Nc1cc(Cl)ccc1O [Compound A, 1-(3-Trifluoromethyl-phenyl)-3-(2-hydroxy-5-chlorophenyl)-urea] | – | repolarisation current ([2]; HEK293 cells stably expressing HERG1, simulated cardiac action potential, 10 μM (FIG. 1)): marked increase; current during the last phase of the cardiac simulating voltage protocol (repolarisation current) ([2]; HEK293 cells, 3-30 μM): increase; HERG1 current in the first 200 ms of the resting phase ([2]; HEK293 cells, simulated cardiac action potential): increased |
| O=C(Nc1cccc(C(F)(F)F)c1)Nc1ccc(Br)cc1-c1nnn[nH]1 [Compound B, 1-(3-Trifluoromethyl-phenyl)-3-[2-(1H-tetrazol-5-yl)-4-bromo-phenyl] urea] | – | reduction of the length of the corrected QT interval (QTc) compared to controls [3]: 23% |
| O=C(Nc1cc(C(F)(F)F)ccc1O)Nc1cc(C(F)(F)F)ccc1O [Compound C, 1,3-Bis-(2-hydroxy-5-trifluoromethyl-phenyl)-urea] | – | cardiac action potential duration [4, 5]: shorting of the cardiac action potential; membrane potential in the presence of the 30 repetitive pulses [4, 5]: stable membrane potential; rounds of current applications in which stabilisation was observed ([4]; of 20 rounds of current applications): 20 rounds |
